Measurements: ChEMBL document CHEMBL1123905

Each compound was assayed against Histamine H2 receptor (Cavia porcellus) (UniProt P47747) (assay: Antagonism of histamine stimulated rate of beating of guinea pig right atrium mediated by Histamine H2 receptor). Conditions: Cardiac atrium.
Assay type: functional, tissue-based

Histamine H2 receptor (Cavia porcellus), sequence (P47747 whole entry): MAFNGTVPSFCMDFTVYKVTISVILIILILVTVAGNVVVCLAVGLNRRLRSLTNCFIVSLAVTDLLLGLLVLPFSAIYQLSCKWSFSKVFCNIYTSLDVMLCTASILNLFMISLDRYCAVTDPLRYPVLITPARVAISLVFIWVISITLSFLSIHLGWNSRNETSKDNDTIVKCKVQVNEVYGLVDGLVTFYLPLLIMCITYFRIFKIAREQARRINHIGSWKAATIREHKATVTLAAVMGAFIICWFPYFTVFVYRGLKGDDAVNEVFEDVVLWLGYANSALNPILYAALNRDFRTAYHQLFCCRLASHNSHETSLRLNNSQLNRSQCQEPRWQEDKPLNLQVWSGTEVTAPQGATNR

Point of comparison: `Cc1[nH]cnc1CSCCNc1ncccc1O`, -Log KB 5.89. Against it:
- CN/C(=N\CCSCc1[nH]cnc1C)S(=O)O — within 0.2 log units, 5.73
- Cc1[nH]cnc1CSCC/N=C(\N)c1ccc(C(=O)O)cc1 — lower, 3.7
- CN/C(=N\CCSCc1[nH]cnc1C)P(=O)(O)OC — lower, 4.25
- Cc1[nH]cnc1CSCC/N=C(\N)c1ccc(O)cc1 — lower, 4.2
- Cc1[nH]cnc1CSCCNc1cc(C(=O)O)ccn1 — lower, 3.76
- CN/C(=N\CCSCc1[nH]cnc1C)S(=O)(=O)O — within 0.2 log units, 5.87
- Cc1[nH]cnc1CSCC/N=C(\N)C(=O)O — lower, 5.41
- Cc1[nH]cnc1CSCCNc1ccc(C(=O)O)cn1 — lower, < 3.3
- Cc1[nH]cnc1CSCCNc1ncccc1C(=O)O — lower, 5.09
- Cc1[nH]cnc1CSCCNc1ncccc1S(=O)(=O)O — lower, 3.77
- CN/C(=N\CCSCc1nc[nH]c1C)NC#N — higher, 6.1
- Cc1[nH]cnc1CSCC/N=C(\N)CC(=O)O — lower, 3.3
